From patent publication US20250263753A1, “BRIDGED CYCLE-BASED INHIBITORS OF DNA-DEPENDENT PROTEIN KINASE AND COMPOSITIONS AND APPLICATION IN GENE EDITING” (Juno Therapeutics, Inc., priority 2023, published 2025)
Where two headings read alike, the source gives them in different places.

Columns and labels:
[1] = molecular target: PI3Kα (His-PIK3CA/PIK3R1, p110 alpha/p85 alpha) (Homo sapiens (Human), UniProt P42336); experiment: PI3Kα biochemical assay (HTRF/FRET probe); assay type: binding
Experimental: Phosphoinositide 3-kinase α (PI3Kα) Biochemical Assay: A solution was prepared containing 0.2 nM Anti-HIS-Terbium (Cisbio, 64CUSTAZU), 3.7 nM designed-probe and 1.0 nM His-PIK3CA/PIK3R1 (p110 alpha/p85 alpha) in FRET Buffer (20 mM HEPES, 10 mM MgCl2, 0.015% Brij-35, 4 mM DTT, 0.05 mg/mL BSA).

[2] = molecular target: DNA-PK (Homo sapiens (Human), UniProt P78527); experiment: DNA-PK biochemical assay (Reaction Biology HotSpot kinase assay, 10 μM ATP)
Experimental: DNA-PK Biochemical Assay Using Reaction Biology's HotSpot Kinase Assay Protocol:
Reagent: Base Reaction buffer; 20 mM Hepes (pH 7.5), 10 mM MgCl2, 1 mM EGTA, 0.01% Brij35, 0.02 mg/ml BSA, 0.1 mM Na3VO4, 2 mM DTT, 1% DMSO Required cofactors are added individually to each kinase reaction.
Reaction Procedure: 1. Prepare substrate in freshly prepared Reaction Buffer; 2. Deliver any required cofactors to the substrate solution above; 3. Deliver kinase into the substrate solution and gently mix; 4. Deliver compounds in 100% DMSO into the kinase reaction mixture by Acoustic technology (Echo550; nanoliter range), incubate for 20 min at room temperature; 5. Deliver 33P-ATP into the reaction mixture to initiate the reaction; 6. Incubate for 2 hours at room temperature; 7. Detect kinase activity by P81 filter-binding method.

[3] = molecular target: PI3Kδ (His-PIK3CD/PIK3R1, p110 delta/p85 alpha) (Homo sapiens (Human), UniProt O00329); experiment: PI3Kδ biochemical assay (HTRF/FRET probe); assay type: binding
Sequence of PI3Kδ (His-PIK3CD/PIK3R1, p110 delta/p85 alpha) (O00329 whole entry, species assumed): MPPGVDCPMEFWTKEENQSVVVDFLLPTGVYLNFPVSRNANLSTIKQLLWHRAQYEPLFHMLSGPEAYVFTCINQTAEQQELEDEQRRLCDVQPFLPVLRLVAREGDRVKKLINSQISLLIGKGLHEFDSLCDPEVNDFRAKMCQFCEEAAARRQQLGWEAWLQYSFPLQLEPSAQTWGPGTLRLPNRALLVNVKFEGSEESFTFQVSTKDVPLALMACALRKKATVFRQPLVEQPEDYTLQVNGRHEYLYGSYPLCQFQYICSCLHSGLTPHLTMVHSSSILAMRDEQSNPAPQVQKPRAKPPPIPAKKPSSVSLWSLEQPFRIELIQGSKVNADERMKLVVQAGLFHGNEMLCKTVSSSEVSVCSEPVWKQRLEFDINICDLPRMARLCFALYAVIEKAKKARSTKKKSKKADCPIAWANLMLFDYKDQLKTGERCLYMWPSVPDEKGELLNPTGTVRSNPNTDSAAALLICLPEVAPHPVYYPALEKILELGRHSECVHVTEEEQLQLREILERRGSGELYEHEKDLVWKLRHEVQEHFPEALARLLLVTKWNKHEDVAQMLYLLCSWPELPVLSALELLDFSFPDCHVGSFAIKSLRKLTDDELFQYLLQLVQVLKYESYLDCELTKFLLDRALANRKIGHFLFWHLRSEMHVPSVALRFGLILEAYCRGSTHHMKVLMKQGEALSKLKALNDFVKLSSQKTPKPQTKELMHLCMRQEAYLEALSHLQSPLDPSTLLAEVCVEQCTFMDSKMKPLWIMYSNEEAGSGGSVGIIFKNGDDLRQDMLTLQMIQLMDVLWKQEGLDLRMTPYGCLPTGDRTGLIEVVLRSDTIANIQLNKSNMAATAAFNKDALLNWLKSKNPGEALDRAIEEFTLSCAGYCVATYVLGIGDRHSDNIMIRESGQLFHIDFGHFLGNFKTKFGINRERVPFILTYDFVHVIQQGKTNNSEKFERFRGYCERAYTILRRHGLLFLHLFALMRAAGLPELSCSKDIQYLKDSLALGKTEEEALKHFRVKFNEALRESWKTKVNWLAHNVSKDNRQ
Sequence of PI3Kδ (His-PIK3CD/PIK3R1, p110 delta/p85 alpha) (P27986 whole entry partner, species assumed): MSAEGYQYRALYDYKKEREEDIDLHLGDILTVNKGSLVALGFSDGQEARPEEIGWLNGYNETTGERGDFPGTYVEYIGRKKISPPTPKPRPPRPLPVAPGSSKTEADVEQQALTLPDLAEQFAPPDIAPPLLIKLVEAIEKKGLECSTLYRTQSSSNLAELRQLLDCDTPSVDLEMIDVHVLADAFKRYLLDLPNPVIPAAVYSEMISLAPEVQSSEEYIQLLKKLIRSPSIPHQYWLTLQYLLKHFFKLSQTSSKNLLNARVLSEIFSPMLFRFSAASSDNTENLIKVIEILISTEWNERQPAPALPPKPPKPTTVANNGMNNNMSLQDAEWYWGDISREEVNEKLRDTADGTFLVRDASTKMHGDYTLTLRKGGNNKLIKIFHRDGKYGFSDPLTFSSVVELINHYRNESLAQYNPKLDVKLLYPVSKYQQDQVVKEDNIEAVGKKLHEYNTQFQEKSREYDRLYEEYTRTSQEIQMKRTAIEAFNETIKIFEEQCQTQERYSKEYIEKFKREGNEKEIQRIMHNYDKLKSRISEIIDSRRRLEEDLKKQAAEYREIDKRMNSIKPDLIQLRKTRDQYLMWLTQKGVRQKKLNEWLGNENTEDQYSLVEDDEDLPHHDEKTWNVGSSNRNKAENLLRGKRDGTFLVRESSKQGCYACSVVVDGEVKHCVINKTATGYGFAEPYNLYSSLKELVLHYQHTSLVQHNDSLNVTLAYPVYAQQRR
Experimental: Phosphoinositide 3-kinase (PI3K) Biochemical Assay: A solution was prepared containing 0.2 nM Anti-HIS-Terbium (Cisbio, 64CUSTAZU), 40 nM designed-probe and 1.0 nM His-PIK3CD/PIK3R1 (p110 delta/p85 alpha) in FRET Buffer (20 mM HEPES, 10 mM MgCl2, 0.015% Brij-35, 4 mM DTT, 0.05 mg/mL BSA).

[4] = molecular target: ATM (Homo sapiens (Human), UniProt Q13315); experiment: ATM biochemical assay (Reaction Biology HTRF kinase assay, 10 μM ATP)
Experimental: Ataxia-Telangiectasia Mutated (ATM) Biochemical Assay Using Reaction Biology's HTRF Kinase Assay Protocol:
The assay detects kinase activity by antibody based HTRF assay. The GST-tagged p53 protein serves as substrate and Eu-labeled-antibody with specific phosphorylation site binds upon phosphorylation which is monitored by HTRF from the anti-GST-d2.
Reagent: Reaction buffer; 50 mM Hepes (pH 7.5), 150 mM NaCl, 10 mM MnCl2, 1% Glycerol, 0.01% Brij35, 1 mM DTT, 1% DMSO.
Substrate: Human p53 (aa2-393), RBC produced in E. coli, N-terminal GST-Tag, MW=70.42 kDa.
Detection; MAb Anti-p53-pS15-Eu cryptate, CisBio cat #61P08KAZ; MAb Anti GST-d2
Reaction Procedure: 1. Deliver 2× Enzyme in wells of reaction plate except No E control wells. Add buffer instead; 2. Deliver compounds in 100% DMSO into the kinase reaction mixture by Acoustic technology (Echo550; nanoliter range), incubate for 30 min at room temperature; 3. Deliver 2× substrate+ATP mixture into the reaction mixture to initiate the reaction; 4. Incubate for 2 hours at room temperature.
HTRF Detection: 1. Deliver 2× Stop/Detection mixture and incubate for 2 hours to overnight in the dark. 2. HTRF measurement (Ex/Em1/Em2=320/615/665 nm) in EnVision.

[5] = read-out: DNA-PK HotSpot 10 μM ATP IC50, class symbol
[6] = read-out: ATM HTRF 10 μM ATP IC50, class symbol

Sequence of PI3Kα (His-PIK3CA/PIK3R1, p110 alpha/p85 alpha) (P42336 whole entry, species assumed): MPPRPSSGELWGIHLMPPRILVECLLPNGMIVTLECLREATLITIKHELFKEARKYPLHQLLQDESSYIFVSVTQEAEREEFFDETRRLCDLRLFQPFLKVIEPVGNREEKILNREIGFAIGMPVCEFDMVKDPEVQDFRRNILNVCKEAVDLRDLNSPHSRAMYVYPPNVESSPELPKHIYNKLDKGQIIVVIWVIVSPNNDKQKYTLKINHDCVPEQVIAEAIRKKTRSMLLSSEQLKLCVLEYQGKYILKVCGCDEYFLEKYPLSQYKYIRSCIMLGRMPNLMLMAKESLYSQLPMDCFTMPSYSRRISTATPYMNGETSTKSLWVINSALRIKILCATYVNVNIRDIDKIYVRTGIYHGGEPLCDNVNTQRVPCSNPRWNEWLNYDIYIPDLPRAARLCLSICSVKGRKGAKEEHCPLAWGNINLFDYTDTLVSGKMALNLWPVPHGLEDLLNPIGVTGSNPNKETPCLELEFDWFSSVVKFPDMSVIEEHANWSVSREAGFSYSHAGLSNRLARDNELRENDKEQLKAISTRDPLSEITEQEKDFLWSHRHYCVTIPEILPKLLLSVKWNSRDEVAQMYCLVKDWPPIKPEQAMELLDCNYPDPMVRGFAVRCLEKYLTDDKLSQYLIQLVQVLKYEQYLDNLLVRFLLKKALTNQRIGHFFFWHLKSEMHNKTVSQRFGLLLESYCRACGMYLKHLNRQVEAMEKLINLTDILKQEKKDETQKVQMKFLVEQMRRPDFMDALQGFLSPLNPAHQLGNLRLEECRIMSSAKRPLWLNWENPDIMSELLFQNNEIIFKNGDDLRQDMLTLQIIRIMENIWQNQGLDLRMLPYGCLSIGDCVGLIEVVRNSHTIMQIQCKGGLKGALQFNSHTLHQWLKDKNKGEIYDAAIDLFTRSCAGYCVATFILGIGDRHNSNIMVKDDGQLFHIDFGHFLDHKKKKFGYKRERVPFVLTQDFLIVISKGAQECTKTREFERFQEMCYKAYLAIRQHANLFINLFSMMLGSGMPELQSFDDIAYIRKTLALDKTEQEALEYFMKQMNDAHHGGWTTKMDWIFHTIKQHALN
Sequence of PI3Kα (His-PIK3CA/PIK3R1, p110 alpha/p85 alpha) (P27986 whole entry partner, species assumed): as the sequence (P27986 whole entry partner, species assumed) above

Row | IC50 ([1]; class symbol) | IC50 [2, 5] | IC50 ([3]; class symbol) | IC50 ([4]; class symbol) | IC50 [4, 6] | IC50 ([2]; class symbol) | IC50 ([1]; numeric value) | IC50 ([2]; read-out: DNA-PK HotSpot 10 μM ATP IC50, numeric value) | IC50 ([3]; numeric value) | IC50 ([4]; read-out: ATM HTRF 10 μM ATP IC50, numeric value) | Structure (SMILES)
1 | 100 to 1000 nM | < 1 nM | ≥ 1000 nM | 10 to 100 nM | – | – | – | – | – | – | Cc1cc2c(cc1Nc1ncc3c(n1)n(C14CCC(O)(CC1)C4)c(=O)n3C)OCCO2 [Compound 5, 9-(4-hydroxybicyclo[2.2.1]heptan-1-yl)-7-methyl-2-((7-methyl-2,3-dihydrobenzo[b][1,4]dioxin-6-yl)amino)-7,9-dihydro-8H-purin-8-one]
2 | 100 to 1000 nM | < 1 nM | ≥ 1000 nM | – | < 1 nM | – | – | – | – | – | Cc1cc(-c2cnco2)c(F)cc1Nc1ncc2c(n1)n(C13CCC(O)(CC1)C3)c(=O)n2C [Compound 36, 2-((5-fluoro-2-methyl-4-(oxazol-5-yl)phenyl)amino)-9-(4-hydroxybicyclo[2.2.1]heptan-1-yl)-7-methyl-7,9-dihydro-8H-purin-8-one]
3 | 100 to 1000 nM | – | 10 to 100 nM | 100 to 1000 nM | – | 1 to 10 nM | – | – | – | – | Cc1cc2nccnc2cc1Nc1ncc2c(n1)n(C13CCC(O)(CC1)C3)c(=S)n2C [Compound 33, 9-(4-hydroxybicyclo[2.2.1]heptan-1-yl)-7-methyl-2-((7-methylquinoxalin-6-yl)amino)-7,9-dihydro-8H-purine-8-thione]
4 | ≥ 1000 nM | < 1 nM | ≥ 1000 nM | 100 to 1000 nM | – | – | – | – | – | – | Cc1cc2ncnn2cc1Nc1ncc2c(n1)N(C13CC(F)(C1)C3)C(=O)C21CC1 [Compound 70, 7′-(3-fluorobicyclo[1.1.1]pentan-1-yl)-2′-((7-methyl-[1,2,4]triazolo[1,5-a]pyridin-6-yl)amino)spiro[cyclopropane-1,5′-pyrrolo[2,3-d]pyrimidin]-6′(7′H)-one]
5 | ≥ 1000 nM | – | – | – | ≥ 1000 nM | 1 to 10 nM | – | – | – | – | Cc1cc2c(cc1Nc1ncc3c(n1)n(C14CCC(O)(CC1)C4)c(=S)n3C)OCO2 [Compound 32, 9-(4-hydroxybicyclo[2.2.1]heptan-1-yl)-7-methyl-2-((6-methylbenzo[d][1,3]dioxol-5-yl)amino)-7,9-dihydro-8H-purine-8-thione]
6 | ≥ 1000 nM | < 1 nM | ≥ 1000 nM | 10 to 100 nM | – | – | – | – | – | – | COC12CCC(N3CC(=O)N(C)c4cnc(Nc5cn6ncnc6cc5C)nc43)(CC1)C2 [Compound 62, 8-(4-methoxybicyclo[2.2.1]heptan-1-yl)-5-methyl-2-((7-methyl-[1,2,4]triazolo[1,5-a]pyridin-6-yl)amino)-7,8-dihydropteridin-6(5H)-one]
7 | 10 to 100 nM | < 1 nM | ≥ 1000 nM | 100 to 1000 nM | – | – | – | – | – | – | COC12CCC(n3c(=O)n(C)c4cnc(Nc5cc6c(cc5C)OCCO6)nc43)(CC1)C2 [Compound 10, 9-(4-methoxybicyclo[2.2.1]heptan-1-yl)-7-methyl-2-((7-methyl-2,3-dihydrobenzo[b][1,4]dioxin-6-yl)amino)-7,9-dihydro-8H-purin-8-one]
8 | 10 to 100 nM | < 1 nM | 100 to 1000 nM | 1 to 10 nM | – | – | – | – | – | – | Cc1cc2nnccc2cc1Nc1ncc2c(n1)N(C13CCC(O)(CC1)C3)CC(=O)N2C [Compound 61, 8-(4-hydroxybicyclo[2.2.1]heptan-1-yl)-5-methyl-2-((7-methylcinnolin-6-yl)amino)-7,8-dihydropteridin-6(5H)-one]
9 | 100 to 1000 nM | – | ≥ 1000 nM | 10 to 100 nM | – | 1 to 10 nM | – | – | – | – | Cc1cc2c(cc1Nc1ncc3c(n1)n(C14CC(CC#N)(C1)C4)c(=O)n3C)OCO2 [Compound 23, 2-(3-(7-methyl-2-((6-methylbenzo[d][1,3]dioxol-5-yl)amino)-8-oxo-7,8-dihydro-9H-purin-9-yl)bicyclo[1.1.1]pentan-1-yl)acetonitrile]
10 | 10 to 100 nM | < 1 nM | 100 to 1000 nM | 100 to 1000 nM | – | – | – | – | – | – | Cc1cc2nccnc2cc1Nc1ncc2c(n1)N(C13CCC(O)(CC1)C3)C(=O)C21CC1 [Compound 67, 7′-(4-hydroxybicyclo[2.2.1]heptan-1-yl)-2′-((7-methylquinoxalin-6-yl)amino)spiro[cyclopropane-1,5′-pyrrolo[2,3-d]pyrimidin]-6′(7′H)-one]
11 | 100 to 1000 nM | < 1 nM | 100 to 1000 nM | 10 to 100 nM | – | – | – | – | – | – | Cc1cc2nccnc2cc1Nc1ncc2c(C)nn(C34CC(C3)C4)c2n1 [Compound 49, N-(1-(bicyclo[1.1.1]pentan-1-yl)-3-methyl-1H-pyrazolo[3,4-d]pyrimidin-6-yl)-7-methylquinoxalin-6-amine]
12 | – | – | ≥ 1000 nM | 10 to 100 nM | – | 10 to 100 nM | – | – | – | – | Cc1cc(-c2cnn(C)c2)c(F)cc1Nc1ncc2c(n1)n(C13CC(F)(C1)C3)c(=O)n2C [Compound 38, 2-((5-fluoro-2-methyl-4-(1-methyl-1H-pyrazol-4-yl)phenyl)amino)-9-(3-fluorobicyclo[1.1.1]pentan-1-yl)-7-methyl-7,9-dihydro-8H-purin-8-one]
13 | 100 to 1000 nM | < 1 nM | 100 to 1000 nM | – | ≥ 1000 nM | – | – | – | – | – | Cc1cc2c(cc1Nc1ncc3c(n1)N(C14CCC(O)(CC1)C4)C(=O)C31CC1)OCO2 [Compound 68, 7′-(4-hydroxybicyclo[2.2.1]heptan-1-yl)-2′-((6-methylbenzo[d][1,3]dioxol-5-yl)amino)spiro[cyclopropane-1,5′-pyrrolo[2,3-d]pyrimidin]-6′(7′H)-one]
14 | 100 to 1000 nM | – | 100 to 1000 nM | 10 to 100 nM | – | < 1 nM | 152 nM | 0.71 nM | 214 nM | 36 nM | Cc1cc2ncnn2cc1Nc1ncc2c(n1)n(C13CCC(O)(CC1)CC3)c(=O)n2C [Compound 78, 9-(4-hydroxybicyclo[2.2.2]octan-1-yl)-7-methyl-2-((7-methyl-[1,2,4]triazolo[1,5-a]pyridin-6-yl)amino)-7,9-dihydro-8H-purin-8-one]
15 | – | < 1 nM | 10 to 100 nM | 10 to 100 nM | – | – | – | – | – | – | Cc1cc2ncccc2cc1Nc1ncc2c(n1)N(C13CCC(O)(CC1)C3)CC(=O)N2C [Compound 53, 8-{4-Hydroxybicyclo[2.2.1]heptan-1-yl}-5-methyl-2-[(7-methylquinolin-6-yl)amino]-5,6,7,8-tetrahydropteridin-6-one]
16 | – | – | ≥ 1000 nM | – | ≥ 1000 nM | 1 to 10 nM | – | – | – | – | COC12CCC(n3c(=O)n(C)c4cnc(Nc5cc6c(cc5C)OCO6)nc43)(C1)C2 [Compound 28, 9-(4-methoxybicyclo[2.1.1]hexan-1-yl)-7-methyl-2-((6-methylbenzo[d][1,3]dioxol-5-yl)amino)-7,9-dihydro-8H-purin-8-one]
17 | ≥ 1000 nM | < 1 nM | – | 100 to 1000 nM | – | – | – | – | – | – | Cc1cc2nsnc2cc1Nc1ncc2c(n1)N(C13CC(F)(C1)C3)CC(=O)N2C [Compound 58, 8-(3-fluorobicyclo[1.1.1]pentan-1-yl)-5-methyl-2-((6-methylbenzo[c][1,2,5]thiadiazol-5-yl)amino)-7,8-dihydropteridin-6(5H)-one]
18 | 10 to 100 nM | < 1 nM | – | 10 to 100 nM | – | – | – | – | – | – | Cc1cc2nsnc2cc1Nc1ncc2c(n1)N(C13CCC(O)(CC1)C3)C(=O)C21CC1 [Compound 69, 7′-(4-hydroxybicyclo[2.2.1]heptan-1-yl)-2′-((6-methylbenzo[c][1,2,5]thiadiazol-5-yl)amino)spiro[cyclopropane-1,5′-pyrrolo[2,3-d]pyrimidin]-6′(7′H)-one]
